According to PubChem BioAssay (NCI):
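Method: 48-hour compound exposure of cells in 96-well plates, five concentrations, linear interpolation of endpoints. GI50 = concentration required for 50% inhibition of growth. The concentration for full growth arrest is given as TGI.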

Experiments:
Assay in all cases: DTP human tumour cell line panel, 48 h
[1] = tested on: COLO 205 colon
[2] = tested on: NCI-H23 lung
[3] = tested on: NCI-H460 lung
[4] = tested on: MCF7 breast
[5] = tested on: UACC-257 melanoma
[6] = tested on: SNB-19 CNS
[7] = tested on: U251 CNS
[8] = tested on: IGROV1 ovarian
[9] = tested on: HT29 colon
[10] = tested on: NCI-H522 lung

SMILES | GI50 [1] [µM] | TGI [1] [µM] | GI50 [2] [µM] | TGI [2] [µM] | GI50 [3] [µM] | TGI [3] [µM] | GI50 [4] [µM] | TGI [4] [µM] | GI50 [5] [µM] | TGI [5] [µM] | GI50 [6] [µM] | TGI [6] [µM] | GI50 [7] [µM] | TGI [7] [µM] | GI50 [8] [µM] | TGI [8] [µM] | GI50 [9] [µM] | TGI [9] [µM] | TGI [10] [µM] | GI50 [10] [µM]
NC(=O)CNc1ccc([As]=[As]c2ccc(NCC(N)=O)cc2)cc1 (stereo unspecified) | 7.83 | 22 | 8.1 | 31.1 | 10.6 | 35.4 | 2.12 | 15.2 | 12.4 | 39.6 | 4.7 | 18.2 | 1.57 | 23.2 | 3.37 | 23.8 | – | – | – | –
O=C1/C(=C/N2N=C(c3ccc4ccccc4c3)CC2c2ccccc2O)SC(=S)N1c1cccnc1 (stereo unspecified) | 1.88 | > 100 | 3.03 | > 100 | 0.514 | > 100 | 0.371 | > 100 | – | – | 3.85 | > 100 | 0.897 | 61 | 1.47 | > 100 | 3.05 | > 100 | – | –
C=CCC1(C)CCCCC1(O)CS(=O)c1ccccc1 (stereo unspecified) | – | > 100 | – | – | – | > 100 | – | – | – | > 100 | – | > 100 | – | > 100 | – | > 100 | – | > 100 | > 100 | –
Nc1ccc(C2=N/C(=C\c3cccc(N)c3)C(=O)O2)cc1 | – | > 100 | – | > 100 | – | – | – | – | – | – | – | > 100 | – | > 100 | – | > 100 | – | > 100 | > 100 | –
COc1cc(-c2nnc3n2NC=C(C(=O)O)S3)cc(OC)c1OC | – | > 70.3 | – | > 100 | – | > 100 | – | – | – | > 100 | – | > 100 | – | > 100 | – | > 100 | – | > 100 | > 100 | –
Cc1ccc2c(c1-c1ccccc1)C(=O)OC2 | – | > 100 | – | > 100 | – | – | – | – | – | > 100 | – | > 100 | – | > 100 | – | > 100 | – | > 100 | > 100 | –
CCOC(=O)C1=C(Nc2ccc(Br)cc2)OCC1=O | – | > 100 | – | > 100 | – | > 100 | – | – | – | > 100 | – | > 100 | – | > 100 | – | > 100 | – | > 100 | > 100 | –
NC(=S)N/N=C1\CCCC\C1=C/c1ccccc1 | – | > 100 | – | > 100 | – | > 100 | – | – | – | 44.4 | – | > 100 | – | > 100 | – | 71.5 | – | 50.3 | 37.9 | –
COC(=O)c1c[nH]cc1CCCCc1c[nH]cc1C(=O)OC | – | > 100 | – | > 100 | – | > 100 | – | – | – | > 100 | – | > 100 | – | > 100 | – | > 100 | – | > 100 | > 100 | –
Cc1c(Cl)cccc1NC(=O)c1cccc([N+](=O)[O-])c1O | – | 27.3 | – | 29.4 | – | 43.3 | – | – | – | 38.8 | – | > 100 | – | 77.5 | – | > 83.2 | – | 82 | 31.6 | –
CCc1cccc(C)c1NC(=O)CC1C(=O)Nc2ccccc2S1=O (stereo unspecified) | – | > 100 | – | > 100 | – | > 100 | – | – | – | 86.5 | – | > 100 | – | 55.4 | – | – | – | > 100 | > 100 | –
CC(C)(C)OC(=O)N1C2CCCC23O[C@@H]1c1cc2c(cc1C3=O)OCO2 (stereo partly specified) | – | – | – | > 100 | – | > 100 | – | – | – | > 100 | – | > 100 | – | > 100 | – | > 100 | – | > 100 | 31.3 | –
CCOC(=O)C(C)(c1c(C)[nH]c2ccccc12)c1c(C)[nH]c2ccccc12 | – | – | – | 37.5 | – | 38.7 | – | – | – | 28 | – | – | – | 33.4 | – | 51.3 | – | 30.3 | – | –
CCC[CH2][Sn]1([CH2]CCC)[O]CC(COc2c(Cl)cc(Cl)cc2Cl)[O]1 (stereo unspecified) | 1.39 | 2.75 | 1.11 | 2.69 | 2.67 | 7.98 | – | – | 1.11 | 2.33 | 1.35 | 2.64 | 0.845 | 2.18 | 1.8 | 3.46 | 2.09 | 4.19 | – | –
COc1ccc(-c2cc(-c3ccc(Nc4ccnc5cc(Cl)ccc45)cc3)nc(N3CCOCC3)n2)cc1 | 3.14 | > 100 | 4.99 | > 100 | – | – | – | – | – | – | 3.86 | > 100 | – | – | – | – | 3.28 | > 100 | – | –
COC(=O)C(=O)CC(=O)c1cccc(OC)c1 | – | > 100 | – | > 100 | – | > 100 | – | > 100 | – | > 100 | – | > 100 | – | > 100 | – | – | – | > 100 | – | –
N#Cc1c(-c2ccco2)cc(-c2ccc(N)cc2)[nH]c1=O | – | – | – | > 100 | – | > 100 | – | – | – | > 100 | – | > 100 | – | > 100 | – | > 100 | – | > 100 | > 100 | –

SMILES | GI50 [1] [µM] | TGI [1] [µM] | GI50 [2] [µM] | TGI [2] [µM] | GI50 [3] [µM] | TGI [3] [µM] | GI50 [4] [µM] | TGI [4] [µM] | GI50 [5] [µM] | TGI [5] [µM] | GI50 [6] [µM] | TGI [6] [µM] | GI50 [7] [µM] | TGI [7] [µM] | GI50 [8] [µM] | TGI [8] [µM] | GI50 [9] [µM] | TGI [9] [µM] | TGI [10] [µM] | GI50 [10] [µM]
C[P+](C)(C)c1ccccc1 | – | > 100 | – | > 100 | – | > 100 | – | – | – | > 100 | – | > 100 | – | > 100 | – | > 100 | – | > 100 | – | –
COc1cc2c(cc1OC)C1Cc3cc(OC)c(OC)cc3N1CC2 (stereo unspecified) | – | 52.1 | – | > 100 | – | > 100 | – | – | – | > 100 | – | > 100 | – | > 100 | – | > 100 | – | > 100 | 35 | –
O=C1c2ccc3c4ccccc4n(-c4ccccc4)c3c2C(=O)N1c1ccc(Cl)cc1 | – | > 100 | – | 24.4 | – | > 100 | – | – | – | > 100 | – | > 100 | – | > 100 | – | > 100 | – | > 100 | > 100 | –
O=C1C2[C@@H](C(=O)N1c1ccc(Br)cc1)C13C(=CC2([N+](=O)[O-])[C@@H]2C(=O)N(c4ccc(Br)cc4)C(=O)[C@@H]21)c1ccccc1N3c1ccccc1 (stereo partly specified) | – | > 100 | – | > 100 | – | – | – | – | – | > 100 | – | > 100 | – | > 100 | – | – | – | – | > 100 | –
CC(=O)[CH-]C(=O)c1ccccc1.CC(=O)[CH-]C(=O)c1ccccc1.O=S(=O)([O-])c1cc([O-])c2c([O-])cc(S(=O)(=O)[O-])cc2c1.[Na+].[Ti+4] | – | – | – | – | > 100 | > 100 | – | – | 77.1 | > 100 | > 100 | > 100 | 97.8 | > 100 | > 100 | > 100 | > 100 | > 100 | > 100 | 70.7
NC(CCc1ncc(C(=O)O)s1)C(=O)O (stereo unspecified) | – | > 100 | – | > 100 | – | > 100 | – | – | – | > 100 | – | – | – | > 100 | – | > 100 | – | > 100 | > 100 | –
Cc1ccc(C)c(N2C(=O)C(=O)C(c3nc4ccccc4o3)/C(=N\NC(=O)c3ccccc3O)C2=O)c1 (stereo unspecified) | – | 72.2 | – | 28.7 | – | – | – | – | – | > 100 | – | > 100 | – | > 100 | – | > 100 | – | > 100 | 54 | –
O=C1CC2CCN(C(=O)c3ccccc3)CC2CCN1 (stereo unspecified) | – | > 100 | – | > 100 | – | > 100 | – | – | – | > 100 | – | > 100 | – | > 100 | – | > 100 | – | > 100 | – | –
Cc1ccc2[c](c1)[Sn]([c]1ccccc1)([c]1ccccc1)[c]1cc(C)ccc1N2C | 23.1 | 52.2 | 41 | > 100 | 51.2 | > 100 | – | – | 57.8 | > 100 | > 100 | > 100 | 87.5 | > 100 | 58.7 | > 100 | 37.3 | > 100 | > 100 | 21.8
NC(=O)c1cn(Cc2ccccc2)c(=O)n1Cc1ccccc1 | – | > 100 | – | > 100 | – | > 100 | – | – | – | > 100 | – | > 100 | – | > 100 | – | > 100 | – | > 100 | > 100 | –
O=C1C=CC(=CC=C2C=CN(CCCCCCCCCCC(=O)NCCCCCCCCCCCC(=O)O)C=C2)C=C1 | – | > 100 | – | > 100 | – | > 100 | – | – | – | > 100 | – | > 100 | – | > 100 | – | > 100 | – | > 100 | > 100 | –
CC12CCC(=O)N1c1cccnc1N2 (stereo unspecified) | – | > 100 | – | > 100 | – | > 100 | – | – | – | > 100 | – | – | – | > 100 | – | > 100 | – | > 100 | > 100 | –
Cc1ccc(N2C(=O)N(c3ccc(C)cc3)C3(SC=NN3C)C2=O)cc1 (stereo unspecified) | – | > 100 | – | > 100 | – | > 100 | – | – | – | > 100 | – | > 100 | – | > 100 | – | > 100 | – | > 100 | > 100 | –
C[Si](C)(C)CN1C(=O)c2ccccc2C1(O)c1ccccc1 (stereo unspecified) | – | > 100 | – | > 100 | – | > 100 | – | – | – | > 100 | – | > 100 | – | > 100 | – | > 100 | – | > 100 | > 100 | –
CC1COS(=O)O1 (stereo unspecified) | – | > 100 | – | > 100 | – | > 100 | – | – | – | > 100 | – | > 100 | – | – | – | > 100 | – | > 100 | > 100 | –
C1=NC(N(Cc2ccccc2)Cc2ccccc2)N(Cc2ccccc2)N1 (stereo unspecified) | – | 30.8 | – | 54.9 | – | 37.2 | – | – | – | 33.5 | – | 55.3 | – | 32.1 | – | 33.6 | – | 30.9 | 40.9 | –
